Laboratory results published in ChEMBL document CHEMBL3352190, “New benzothieno[3,2-d]-1,2,3-triazines with antiproliferative activity: synthesis, spectroscopic studies, and biological activity” (2014).
Active and inactive are the calls of the source. No cut-off for these calls is given here.

Experiments:
[1] = test system: HeLa; assay: Cytotoxicity against human HeLa cells assessed as reduction in cell viability after 24 to 48 hrs by MTT assay; type: functional
[2] = test system: HeLa; assay: Cytotoxicity against human HeLa cells assessed as reduction in cell viability after 24 hrs by MTT assay; type: functional
[3] = test system: HeLa; assay: Cytotoxicity against human HeLa cells assessed as reduction in cell viability by MTT assay; type: functional, cell-based; details: TDE = time-dependent effect
[4] = test system: HeLa; assay: Cytotoxicity against human HeLa cells assessed as reduction in cell viability after 48 hrs by MTT assay; type: functional
[5] = test system: HeLa; assay: Cytotoxicity against human HeLa cells assessed as reduction in plasma membrane integrity at 1 to 50 uM by LDH release assay; type: functional, cell-based
[6] = test system: Calf thymus DNA; assay: Binding affinity to calf thymus DNA assessed as change in CD spectrum of DNA by CD titration method; type: nucleic-acid assay; details: Bos taurus
[7] = test system: Calf thymus DNA; assay: Binding affinity to calf thymus DNA assessed as hypochromic effect by UV-vis spectroscopy; type: nucleic-acid assay; set-up: concentration or dose not given beside the values; details: Bos taurus
[8] = test system: Calf thymus DNA; assay: Binding affinity to calf thymus DNA assessed by UV-vis spectroscopy; type: nucleic-acid assay; details: Bos taurus
[9] = test system: Calf thymus DNA; assay: Binding affinity to calf thymus DNA assessed as DNA intercalation by viscosity study; type: nucleic-acid assay; details: Bos taurus
[10] = test system: HeLa; assay: Cell cycle arrest in human HeLa cells assessed as accumulation of G0/G1 phase after 12 to 24 hrs by flow cytometry; type: functional, cell-based
[11] = test system: HeLa; assay: Cell cycle arrest in human HeLa cells assessed as supression of G2/M phase after 12 to 24 hrs by flow cytometry; type: functional, cell-based
[12] = test system: HeLa; assay: Cell cycle arrest in human HeLa cells at 4.4 uM after 24 hrs by flow cytometry; type: functional, cell-based
[13] = test system: HeLa; assay: Cell cycle arrest in human HeLa cells at 8.8 uM after 12 hrs by flow cytometry; type: functional, cell-based
[14] = test system: HeLa; assay: Cell cycle arrest in human HeLa cells assessed as accumulation of cells at sub-G1 phase at 8.8 uM after 24 hrs by flow cytometry; type: functional, cell-based

Cc1ccc(-n2nnc3c(sc4ccccc43)c2=O)cc1
Activity [1]: Dose-dependent effect
GI50 [2]: 5.32 µM
Activity [3]: tde
GI50 [4]: 1.88 µM
Activity [5]: inactive
Activity [6]: Active
Activity [7]: 25%
Kb [8]: 1.23 ×10⁵ /M
Activity [9]: Active

CCOC(=O)c1sc2ccccc2c1/N=N/Nc1ccc(F)c(Cl)c1
Activity [1]: Dose-dependent effect
GI50 [2]: 31.4 µM
Activity [3]: tde
GI50 [4]: 12.9 µM
Activity [9]: inactive

CCOC(=O)c1sc2ccccc2c1/N=N/Nc1ccccc1
Activity [1]: Dose-dependent effect
GI50 [2]: 49.3 µM
Activity [3]: tde
GI50 [4]: 26.1 µM
Activity [6]: Active
Activity [7]: 12%
Kb [8]: 9.87 ×10⁵ /M
Activity [9]: Active

Cn1nnc2c(C(N)=O)ncn2c1=O [TEMOZOLOMIDE]
GI50 [1]: > 50 µM

O=c1c2sc3ccccc3c2nnn1-c1ccc(F)c(Cl)c1
Activity [1]: Dose-dependent effect
GI50 [2]: 6.35 µM
Activity [3]: tde
GI50 [4]: 2.45 µM
Activity [5]: inactive
Activity [9]: inactive

CCOC(=O)c1sc2ccccc2c1/N=N/Nc1ccc(C)cc1
Activity [1]: Dose-dependent effect
GI50 [2]: 42.1 µM
Activity [3]: tde
GI50 [4]: 18.3 µM
Activity [9]: inactive

CCOC(=O)c1sc2ccccc2c1/N=N/Nc1cc(OC)c(OC)c(OC)c1
Activity [1]: Dose-dependent effect
GI50 [2]: 22.8 µM
Activity [3]: tde
GI50 [4]: 14.4 µM
Activity [6]: inactive
Activity [7]: 11%
Kb [8]: 4.14 ×10⁶ /M
Activity [9]: Active

CCOC(=O)c1sc2ccccc2c1/N=N/Nc1ccc(OC)cc1
Activity [1]: Dose-dependent effect
GI50 [2]: 49.1 µM
Activity [3]: tde
GI50 [4]: 17.4 µM

O=c1c2sc3ccccc3c2nnn1-c1ccccc1
Activity [1]: Dose-dependent effect
GI50 [2]: 18.6 µM
Activity [3]: tde
GI50 [4]: 9.79 µM
Activity [6]: inactive
Activity [7]: 85%
Kb [8]: 6.67 ×10⁵ /M
Activity [9]: Active

COc1ccc(-n2nnc3c(sc4ccccc43)c2=O)cc1
Activity [1]: Dose-dependent effect
GI50 [2]: 4.37 µM
Activity [10]: Dose-dependent effect
Activity [11]: Dose-dependent effect
Activity [3]: tde
GI50 [4]: 1.24 µM
Activity [5]: inactive
Activity [12]: Active
Activity [6]: Active
Activity [7]: 28%
Activity [13]: Active
Activity [14]: Active
Kb [8]: 9.72 ×10⁴ /M
Activity [9]: Active

CN(C)/N=N/c1[nH]cnc1C(N)=O [DACARBAZINE]
GI50 [1]: > 50 µM

COc1cc(-n2nnc3c(sc4ccccc43)c2=O)cc(OC)c1OC
Activity [1]: Dose-dependent effect
GI50 [2]: 20.7 µM
Activity [3]: tde
GI50 [4]: 9.44 µM
Activity [6]: inactive
Activity [7]: 29%
Kb [8]: 9.84 ×10⁵ /M
Activity [9]: Active
